target: PI3Kβ (Homo sapiens (Human), UniProt P42338); assay: PI3K isoform TR-FRET enzymatic assay (PI3Kβ); assay type: biochemical; details: 2× Km ATP, 30 minutes at 25° C.
In short: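 Heterodimeric recombinant PI3Kβ was incubated with compound 30 minutes at 25° C. Product was detected by TR-FRET competition with 10 nM labeled PIP3 for 35 nM Eu-GRP-1 PH domain after EDTA stop. Data were normalized to 1 μM wortmannin and DMSO, and IC50 was taken from a four-parameter fit.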

Chain of PI3Kβ (P42338 whole entry, the tested form may be a part, canonical isoform): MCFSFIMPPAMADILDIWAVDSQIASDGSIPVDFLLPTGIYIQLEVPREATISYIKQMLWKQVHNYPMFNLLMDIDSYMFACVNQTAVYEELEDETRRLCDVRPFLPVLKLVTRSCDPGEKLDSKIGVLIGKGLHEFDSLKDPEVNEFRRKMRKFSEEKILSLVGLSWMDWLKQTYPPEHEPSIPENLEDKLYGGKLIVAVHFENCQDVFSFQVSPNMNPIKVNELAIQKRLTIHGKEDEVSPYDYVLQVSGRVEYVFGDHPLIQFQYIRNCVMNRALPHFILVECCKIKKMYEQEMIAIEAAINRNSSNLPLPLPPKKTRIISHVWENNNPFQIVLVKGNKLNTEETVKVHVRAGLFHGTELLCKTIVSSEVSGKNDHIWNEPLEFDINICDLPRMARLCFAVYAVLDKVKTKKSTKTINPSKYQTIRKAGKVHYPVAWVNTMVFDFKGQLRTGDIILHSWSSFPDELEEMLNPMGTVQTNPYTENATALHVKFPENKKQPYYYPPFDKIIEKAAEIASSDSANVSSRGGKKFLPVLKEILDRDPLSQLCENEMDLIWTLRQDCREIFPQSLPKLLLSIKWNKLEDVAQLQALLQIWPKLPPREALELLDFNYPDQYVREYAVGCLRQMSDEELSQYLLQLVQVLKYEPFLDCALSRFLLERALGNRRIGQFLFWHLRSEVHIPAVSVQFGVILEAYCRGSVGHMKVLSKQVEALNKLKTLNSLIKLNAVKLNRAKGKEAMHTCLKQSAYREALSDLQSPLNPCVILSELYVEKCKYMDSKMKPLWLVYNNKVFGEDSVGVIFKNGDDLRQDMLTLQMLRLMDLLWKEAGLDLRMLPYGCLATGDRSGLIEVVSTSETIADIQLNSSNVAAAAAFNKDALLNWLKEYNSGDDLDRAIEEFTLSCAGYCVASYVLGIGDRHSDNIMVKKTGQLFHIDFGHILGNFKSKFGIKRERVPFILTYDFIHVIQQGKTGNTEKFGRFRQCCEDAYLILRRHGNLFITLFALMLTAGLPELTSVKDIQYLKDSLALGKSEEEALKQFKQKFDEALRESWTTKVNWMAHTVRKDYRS
Chain of PI3Kβ (P27986 whole entry partner, the tested form may be a part, canonical isoform): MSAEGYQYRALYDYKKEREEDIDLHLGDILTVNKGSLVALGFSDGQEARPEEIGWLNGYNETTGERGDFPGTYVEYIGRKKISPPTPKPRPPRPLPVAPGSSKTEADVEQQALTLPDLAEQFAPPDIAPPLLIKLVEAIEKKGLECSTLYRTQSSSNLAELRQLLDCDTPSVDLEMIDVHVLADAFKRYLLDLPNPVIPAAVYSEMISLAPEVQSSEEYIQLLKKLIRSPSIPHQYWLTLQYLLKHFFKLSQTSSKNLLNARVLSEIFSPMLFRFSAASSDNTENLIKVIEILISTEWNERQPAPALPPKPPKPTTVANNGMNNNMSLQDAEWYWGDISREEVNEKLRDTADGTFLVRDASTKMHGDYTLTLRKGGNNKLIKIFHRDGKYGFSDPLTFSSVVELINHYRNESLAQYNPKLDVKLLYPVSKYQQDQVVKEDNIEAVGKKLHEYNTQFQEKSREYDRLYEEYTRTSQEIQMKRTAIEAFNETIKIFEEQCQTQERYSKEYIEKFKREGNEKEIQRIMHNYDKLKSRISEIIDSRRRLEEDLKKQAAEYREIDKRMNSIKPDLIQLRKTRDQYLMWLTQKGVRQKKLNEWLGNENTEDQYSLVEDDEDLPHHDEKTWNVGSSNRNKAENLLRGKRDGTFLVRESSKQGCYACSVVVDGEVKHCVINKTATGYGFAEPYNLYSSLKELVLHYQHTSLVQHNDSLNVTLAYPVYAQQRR

Going from `Cc1nc2c(-c3cnc(Cl)[nH]3)cc(N3CCOCC3)cc2n1-c1ccnc2c(Cl)c(F)ccc12` [Example 294, 4-[3-(8-chloro-7-fluoroquinolin-4-yl)-7-(2-chloro-1H-imidazol-5-yl)-2-methylbenzimidazol-5-yl]morpholine] to `CCc1nc2c(-c3cnc(Cl)[nH]3)cc(N3CCOCC3)cc2n1-c1ccnc2c(Cl)c(F)ccc12` [Example 295, 4-[3-(8-chloro-7-fluoroquinolin-4-yl)-7-(2-chloro-1H-imidazol-5-yl)-2-ethylbenzimidazol-5-yl]morpholine], the IC50 rises from 6 nM to 12 nM (2-fold). The first is the more potent here.

Compared with `Fc1ccc2c(-n3c(C4CC4)nc4c(-c5cnc(Cl)[nH]5)cc(N5CCOCC5)cc43)ccnc2c1Cl` [Example 296, 4-[3-(8-chloro-7-fluoroquinolin-4-yl)-7-(2-chloro-1H-imidazol-5-yl)-2-cyclopropylbenzimidazol-5-yl]morpholine], `Fc1ccc(Cl)c2nccc(-n3c(C4CC4)nc4c(-c5cnc(Cl)[nH]5)cc(N5CCOCC5)cc43)c12` [Example 307, 4-[3-(8-chloro-5-fluoroquinolin-4-yl)-7-(2-chloro-1H-imidazol-5-yl)-2-cyclopropylbenzimidazol-5-yl]morpholine] is 2.1-fold lower in IC50: 17 nM for the first, 8 nM for the second.

First: Cc1ncc(-c2cc(N3CCOCC3)cc3c2nc(C)n3-c2ccnc3c(Cl)cccc23)s1 [Example 297, 4-[3-(8-chloroquinolin-4-yl)-2-methyl-7-(2-methyl-1,3-thiazol-5-yl)benzimidazol-5-yl]morpholine]
Second: Cc1nc2c(-c3cnn(C)c3)cc(N3CCOCC3)cc2n1-c1ccnc2c(Cl)cccc12 [Example 313, 4-(1-(8-chloroquinolin-4-yl)-2-methyl-4-(1-methyl-1H-pyrazol-4-yl)-1H-benzo[d]imidazol-6-yl)morpholine]
The IC50 of the first is 2.6-fold lower: 3800 nM for the first, 9800 nM for the second.

Compared with `Cc1nc2c(-c3cnc(Cl)[nH]3)cc(N3CCOCC3)cc2n1-c1ccnc2c(F)ccc(F)c12` [Example 298, 4-[7-(2-chloro-1H-imidazol-5-yl)-3-(5,8-difluoroquinolin-4-yl)-2-methylbenzimidazol-5-yl]morpholin], `Cc1nc2c(-c3cnc(Cl)[nH]3)cc(N3CCOCC3)cc2n1-c1ccnc2c(F)ccc(Cl)c12` [Example 309, 4-[3-(5-chloro-8-fluoroquinolin-4-yl)-7-(2-chloro-1H-imidazol-5-yl)-2-methylbenzimidazol-5-yl]morpholine] is 5-fold higher in IC50: 10 nM for the first, 50 nM for the second.

`CCCc1nc2c(-c3cnc(Cl)[nH]3)cc(N3CCOCC3)cc2n1-c1ccnc2c(F)ccc(F)c12` [Example 299, 4-[7-(2-chloro-1H-imidazol-5-yl)-3-(5,8-difluoroquinolin-4-yl)-2-propylbenzimidazol-5-yl]morpholine] and `CC(C)Cc1nc2c(-c3cnc(Cl)[nH]3)cc(N3CCOCC3)cc2n1-c1ccnc2c(F)ccc(F)c12` [Example 300, 4-[7-(2-chloro-1H-imidazol-5-yl)-3-(5,8-difluoroquinolin-4-yl)-2-(2-methylpropyl)benzimidazol-5-yl]morpholine] are within 1.5-fold of each other in IC50: 17 nM for the first, 14 nM for the second.

Compared with `Clc1ncc(-c2cc(N3CCOCC3)cc3c2nc(CC2CC2)n3-c2ccnc3c(Cl)cccc23)[nH]1` [Example 301, 4-[7-(2-chloro-1H-imidazol-5-yl)-3-(8-chloroquinolin-4-yl)-2-(cyclopropylmethyl)benzimidazol-5-yl]morpholine], `Fc1cccc2c(-n3c(CC4CC4)nc4c(-c5cnc(Cl)[nH]5)cc(N5CCOCC5)cc43)ccnc12` [Example 304, 4-[7-(2-chloro-1H-imidazol-5-yl)-2-(cyclopropylmethyl)-3-(8-fluoroquinolin-4-yl)benzimidazol-5-yl]morpholine] is 4-fold higher in IC50: 20 nM for the first, 81 nM for the second. The first is the more potent here.

Going from `Fc1ccc(F)c2c(-n3c(CC4CC4)nc4c(-c5cnc(Cl)[nH]5)cc(N5CCOCC5)cc43)ccnc12` [Example 302, 4-[7-(2-chloro-1H-imidazol-5-yl)-2-(cyclopropylmethyl)-3-(5,8-difluoroquinolin-4-yl)benzimidazol-5-yl]morpholine] to `CCc1nc2c(-c3cnc(Cl)[nH]3)cc(N3CCOCC3)cc2n1-c1ccnc2c(F)ccc(Cl)c12` [Example 310, 4-[3-(5-chloro-8-fluoroquinolin-4-yl)-7-(2-chloro-1H-imidazol-5-yl)-2-ethylbenzimidazol-5-yl]morpholine], the IC50 rises from 24 nM to 36 nM (1.5-fold). The first is the more potent here.

First: CCCc1nc2c(-c3cnc(Cl)[nH]3)cc(N3CCOCC3)cc2n1-c1ccnc2c(Cl)cc(F)cc12 [Example 303, 4-[3-(8-chloro-6-fluoroquinolin-4-yl)-7-(2-chloro-1H-imidazol-5-yl)-2-propylbenzimidazol-5-yl]morpholine]
Second: CCCc1nc2c(-c3cnc(Cl)[nH]3)cc(N3CCOCC3)cc2n1-c1ccnc2c(F)cccc12 [Example 305, 4-[7-(2-chloro-1H-imidazol-5-yl)-3-(8-fluoroquinolin-4-yl)-2-propylbenzimidazol-5-yl]morpholine]
The IC50 of the first is 1.6-fold higher: 21 nM for the first, 13 nM for the second.

Compared with `Cc1nc2c(-c3cnc(Cl)[nH]3)cc(N3CCOCC3)cc2n1-c1ccnc2ccccc12` [Example 306, 4-[7-(2-chloro-1H-imidazol-5-yl)-2-methyl-3-quinolin-4-ylbenzimidazol-5-yl]morpholine], `Cc1nc2c(-c3cnn[nH]3)cc(N3CCOCC3)cc2n1-c1ccnc2c(Cl)cccc12` [Example 329, 4-(1-(8-chloroquinolin-4-yl)-2-methyl-4-(1H-1,2,3-triazol-5-yl)-1H-benzo[d]imidazol-6-yl)morpholine] is 53-fold lower in IC50: 370 nM for the first, 7 nM for the second. The second is the more potent here.

Going from `Fc1ccc(F)c2c(-n3cnc4c(-c5cnc(Cl)[nH]5)cc(N5CCOCC5)cc43)ccnc12` [Example 308, 4-[7-(2-chloro-1H-imidazol-5-yl)-3-(5,8-difluoroquinolin-4-yl)benzimidazol-5-yl]morpholine] to `Clc1cccc2c(-n3cnc4c(-c5c[nH]cn5)cc(N5CCOCC5)cc43)ccnc12` [Example 332, 4-(1-(8-chloroquinolin-4-yl)-4-(1H-imidazol-4-yl)-1H-benzo[d]imidazol-6-yl)morpholine], the IC50 falls from 6 nM to 2 nM (3-fold). The second is the more potent here.

Compared with `Cc1nc2c(-c3ccccc3)cc(N3CCOCC3)cc2n1-c1ccnc2c(Cl)cccc12` [Example 311, 4-(1-(8-chloroquinolin-4-yl)-2-methyl-4-phenyl-1H-benzo[d]imidazol-6-yl)morpholine], `Cc1nc2c(-c3cccnc3)cc(N3CCOCC3)cc2n1-c1ccnc2c(Cl)cccc12` [Example 317, 4-[3-(8-chloroquinolin-4-yl)-2-methyl-7-pyridin-3-ylbenzimidazol-5-yl]morpholine] is 15-fold higher in IC50: 47 nM for the first, 690 nM for the second. The first is the more potent here.

Going from `Cc1nc2c(-c3ccccc3)cc(N3CCOCC3)cc2n1-c1ccnc2c(-c3ccccc3)cccc12` [Example 312, 4-(2-methyl-4-phenyl-1-(8-phenylquinolin-4-yl)-1H-benzo[d]imidazol-6-yl)morpholine] to `Cc1nc2c(-c3cccnc3)cc(N3CCOCC3)cc2n1-c1ccnc2c(-c3cccnc3)cccc12` [Example 318, 4-[2-methyl-7-pyridin-3-yl-3-(8-pyridin-3-ylquinolin-4-yl)benzimidazol-5-yl]morpholine], the IC50 rises from 967 nM to 5200 nM (5.4-fold).

`Cc1nc2c(-c3ccnnc3)cc(N3CCOCC3)cc2n1-c1ccnc2c(Cl)cccc12` [Example 314, 4-(1-(8-chloroquinolin-4-yl)-2-methyl-4-(pyridazin-4-yl)-1H-benzo[d]imidazol-6-yl)morpholine] and `Cc1nc2c(-c3ccncc3)cc(N3CCOCC3)cc2n1-c1ccnc2c(Cl)cccc12` [Example 319, 4-[3-(8-chloroquinolin-4-yl)-2-methyl-7-pyridin-4-ylbenzimidazol-5-yl]morpholine] are within 1.5-fold of each other in IC50: 7800 nM for the first, 8600 nM for the second.

`Cc1nc2c(-c3cncnc3)cc(N3CCOCC3)cc2n1-c1ccnc2c(Cl)cccc12` [Example 315, 4-(1-(8-chloroquinolin-4-yl)-2-methyl-4-(pyrimidin-5-yl)-1H-benzo[d]imidazol-6-yl)morpholine] and `Cc1nc2c(-c3ccccn3)cc(N3CCOCC3)cc2n1-c1ccnc2c(Cl)cccc12` [Example 323, 4-[3-(8-chloroquinolin-4-yl)-2-methyl-7-pyridin-2-ylbenzimidazol-5-yl]morpholine] are within 1.5-fold of each other in IC50: 490 nM for the first, 417 nM for the second.

First: Cc1nc2c(-c3cccc(N(C)C)c3)cc(N3CCOCC3)cc2n1-c1ccnc2c(Cl)cccc12 [Example 316, 3-(1-(8-chloroquinolin-4-yl)-2-methyl-6-morpholino-1H-benzo[d]imidazol-4-yl)-N,N-dimethylaniline]
Second: Cc1nc2c(-c3cccc(C(N)=O)c3)cc(N3CCOCC3)cc2n1-c1ccnc2c(Cl)cccc12 [Example 321, 3-[1-(8-chloroquinolin-4-yl)-2-methyl-6-morpholin-4-ylbenzimidazol-4-yl]benzamide]
The IC50 of the first is 1.8-fold lower: 2500 nM for the first, 4400 nM for the second.

`Cc1nc2c(-c3ccncc3)cc(N3CCOCC3)cc2n1-c1ccnc2c(-c3ccncc3)cccc12` [Example 320, 4-[2-methyl-7-pyridin-4-yl-3-(8-pyridin-4-ylquinolin-4-yl)benzimidazol-5-yl]morpholine] and `Cc1nc2c(-c3cccc(C(N)=O)c3)cc(N3CCOCC3)cc2n1-c1ccnc2c(-c3cccc(C(N)=O)c3)cccc12` [Example 322, 3-[4-[4-(3-carbamoylphenyl)-2-methyl-6-morpholin-4-ylbenzimidazol-1-yl]quinolin-8-yl]benzamide] cannot be ordered by IC50: greater than 10000 nM for the first, greater than 10000 nM for the second.

Going from `Cc1cc(-n2cnc3c(-c4cnc[nH]4)cc(N4CCOCC4)cc32)c2c(Cl)ccc(Cl)c2n1` [Example 330] to `Cc1cc(-n2c(C)nc3c(-c4cnc[nH]4)cc(N4CCOCC4)cc32)c2c(Cl)ccc(Cl)c2n1` [Example 333, 4-[3-(5,8-dichloro-2-methylquinolin-4-yl)-7-(1H-imidazol-5-yl)-2-methylbenzimidazol-5-yl]morpholine], the IC50 rises from 5 nM to 9 nM (1.8-fold). The first is the more potent here.

Molecule `CCc1nc2c(-c3c[nH]cn3)cc(N3CCOCC3)cc2n1-c1ccnc2c(Cl)cccc12` [Example 331, 4-[3-(8-chloroquinolin-4-yl)-2-ethyl-7-(1H-imidazol-4-yl)benzimidazol-5-yl]morpholine] has an IC50 of 7 nM.
